Measurements taken from patent publication US20220404374A1, “METHOD FOR DETERMINING WHETHER OR NOT A SUBJECT HAS A PARKINSONIAN CONDITION” (UNIVERSITE DU LUXEMBOURG, priority 2019, published 2022).

Columns and labels:
[1] = tested on: wildtype mice; experiment: adhesive removal test in mice after 2-HP injection into the brain; format: in vivo; details: higher 2-HP concentrations injected into the brain, 15 days post-injection, vs PBS
Procedure: The in vivo work testing for effects of 2-HP in a mouse model lead to results from a small-scale 15-day experiment. In this experiment, 2-HP was injected at several concentrations (5, 50 and 100 mM) into the brain of transgenic mice overexpressing human alpha-synuclein, and of wildtype control mice.

[2] = tested on: enteric neurons; experiment: toxicity of 2-HP in enteric neurons (MTT cell viability assay); format: cell-based
Procedure: Enteric neurons were cultured in differentiation medium, consisting on Neurobasal (Invitrogen, 21103049) supplemented with 1:200 N2 (Invitrogen, 17502048), 1:100 L-Glutamine (Invitrogen, 25030-024), 1:100 B-27 without Vitamin A (Life Technologies, 12587-010), 1:100 Penicillin/Streptomycin (Invitrogen, 15140122), 25 ng/mL GDNF (Peprotech, 450-10) and 100 μM Ascorbic Acid (Sigma, A5960). Cells were cultured for 21 days in a 6-well plate, then detached with Accutase (Sigma, A6964), and replated into a 96-well plate. Cells were maintained under differentiating conditions until day 31, when they were treated with increasing concentrations of 2-hydroxypyridine (Sigma, H56800). Tested concentrations were as follows: 1 μM, 3 μM, 6 μM, 10 μM, 30 μM, 60 μM, 100 μM, 300 μM, 600 μM, 1 mM and 3 mM.
2-hydroxypyridine was reconstituted to 10 mM in the differentiation medium described above.
Cells were treated for 24 h, then cell viability was assessed performing a Tetrazolium (MTT) assay. Thiazolyl Blue tetrazolium Bromide (Sigma, M5655) was reconstituted to a 5 mg/mL solution in differentiation media and filtered. 10 μL of the solution were then added to every well containing 100 μL of media. Plate was incubated for 2 h in a normal incubator (37° C., 5% CO2). […] Cells were disaggregated by pipetting vigorously and absorbance was read at 570 nm, using the microplate Cytation 5M reader (Biotek).

[3] = tested on: IL-1b mRNA expression; experiment: IL-1b mRNA expression (qPCR) in murine bone-marrow derived macrophages; format: cell-based; details: 10 mM 2-HP, murine BMDMs
Procedure: NLRP3 inflammasome activation is thought to play a role in the pathogenesis of neurodegenerative disorders, and increased levels of this inflammasome and of the related cytokine IL-1b have been detected in Parkinson's patients (Guan & Han, 2020). […] Inflammasome activation was evaluated with qPCR for IL-1b expression (normalized to β-actin), considering the fold change relative to 0 mM 2-HP of each time point.

[4] = tested on: HiTox strains of yeast expressing human alpha-synuclein; experiment: toxicity assays of 2-HP in HiTox strains of yeast expressing human alpha-synuclein (growth phenotyping); format: cell-based
Procedure: Yeast cells were grown in synthetic complement (SC) media containing 6.7 g/L yeast nitrogen base without amino acids, 5 g/L ammonium sulfate supplemented with 2 g/L SC. Media was autoclaved and the carbon source (8% raffinose or galactose) was added to a final concentration of 2%.
Four fresh single colonies of the Hitox strain and its respective control strain were inoculated from SC-2% glucose plates into 5 mL SC-2% raffinose and incubated overnight with shaking (200 rpm) at 30° C. After ≈20 h, overnight cultures were diluted to OD 0.5 and 2 μL of the yeast cultivation was added to 78 μL drug containing media to a final optical density of 0.0125 in a 384-well microplate. 2-HP was diluted in SC-2% raffinose/galactose and tested at different concentrations (1-100 mM). Finally, the plates are measured in a microplate reader (TECAN™ Infinite M200Pro), at an interval of 10 minutes during 72 h at 30° C. Yeast growth phenotyping was performed as previous described (Jung et al. 2015). Final biomass was corrected using the GATHODE software (Jung et al. 2015). The OD600 at 48 h was taken for the quantification.

[5] = control strain, higher concentration of 2-HP (FIG. 3C)

Oc1ccccn1 [2-HP, 2-hydroxypyridine]
performance in the adhesive removal test (sensorimotor function) [1]: perform worse | toxicity on enteric neurons at 3 mM [2]: significant changes | LD50 ([2]; enteric neurons, 24 h treatment, MTT): around 3 mM | increase in IL-1b mRNA (fold change relative to 0 mM 2-HP, normalized to β-actin) ([3]; 3 hours): 3.2 fold | increase in IL-1b mRNA (fold change relative to 0 mM 2-HP, normalized to β-actin) ([3]; 24 hours): 1.5 fold | dose at which 2-HP is selectively toxic to transgenic alpha-synuclein expressing yeast ([4]; HiTox yeast expressing human alpha-synuclein vs control strain): 1 mM | lag time of growth curve [4, 5]: prolonged | yield of growth curve [4, 5]: unaffected | toxic dose-response, galactose ([4]; galactose, alpha-synuclein induced (FIG. 3B), HiTox strains vs control strain): A toxic dose-response can be observed in the HiTox strains, but not in the control strain | toxic dose-response, raffinose ([4]; raffinose, alpha-synuclein not induced (FIG. 3A)): A toxic dose-response can be observed
